Reference: patent publication US9375395B2, “Compositions comprising an NFκB-inhibitor and a tropoelastin promoter” (JOHNSON & JOHNSON CONSUMER INC., priority 2009, dated 2016)

How the values were obtained:
[1] = system: NFκB; assay: NFκB-INHIBITION TEST (NF-kB gene reporter luciferase, TNFα-stimulated FB293 cells); type: cell-based, human
Method: The NFκB-INHIBITION TEST is conducted in the following manner. FB293 cells, a stable transfected human epithelial cell line containing the gene reporter for NF-kB are used. They may be obtained from, e.g., Panomics (Fremont, Calif.). FB293 are plated at a density of 5×10^4 cells/mL in a suitable medium, e.g., Dulbecco's modified Eagle's medium (DMEM) supplemented with 10% fetal bovine serum (Invitrogen, San Diego, Calif.). The FB293 cells are stimulated with 100 ng/mL of Tumor Necrosis Factor-α (TNFα, available from Sigma-Aldrich of St Louis, Mo.) in the presence of the test sample. Separately, a control sample is tested wherein no test sample is applied. Following a 24-hour incubation at 37° C. with 5% CO2, cells are lysed with 40 μl of reporter lysis buffer (Promega, Madison, Wis.). A 20-μl aliquot of the lysate is assayed using a luciferase assay kit (Promega) and counted for 10 s in a Lmax luminometer (Molecular Devices, Sunnyvale, Calif.) with the data represented as the relative light unit/second. Percent NFκB Inhibition of the test sample is calculated as: NFκB Inhibition=[1−(Lsample/Lcontrol)]*100 where Lsample is the luminescence of the sample and Lcontrol is the luminescence of the control.
The NFκB-INHIBITION TEST described above was performed on test samples of Bay 11-7082 (Sigma-Aldrich, St. Louis, Mo.), Tetrahydrocurcuminoids CG (Sabinsa Corporation, Piscataway, N.J.), as well as various concentrations of 4-hexylresorcinol. The results are shown in Table 1, in which NF-kB Gene Reporter Activation (Luminescence, L) is reported for the test samples and a control sample. Percent NF-kB Inhibition is also reported.
The NFκB-INHIBITION TEST described above was performed on a series of substituted resorcinols each having a concentration of 10 ug/ml.

[2] = system: elastin promoter; assay: TROPOELASTIN PROMOTER ASSAY (elastin promoter-luciferase reporter in H9C2 cells); type: cell-based, rat; conditions: 0.1 ug/ml on active basis; for Percent Change Over Vehicle: 24 h (Table 3)
Method: Suitable tropoelastin promoters may be determined, for example, using the TROPOELASTIN PROMOTER ASSAY. The TROPOELASTIN PROMOTER ASSAY is performed as follows. Rat cardiac myoblasts H9C2 (which may be purchased, for example from ATCC of Manassas, Va.) are used. Cultures are maintained in Dulbecco's modified Eagle's medium (DMEM, Invitrogen Life Technologies, Carlsbad, Calif.) supplemented with 10% fetal bovine serum, 2 mM glutamine, 100 units/ml penicillin, and 50 ug/ml streptomycin (Invitrogen Life Technologies, Carlsbad, Calif.). Cell cultures are transiently transfected with the elastin promoter-luciferase reporter construct (Elp2.2, a 2.2 kb elastin promoter fragment from nt −2267 to nt +2, driving the firefly luciferase gene, which may be obtained from Promega, Madison Wis.). DNA is prepared by Qiagen Maxi columns (Qiagen Valencia, Calif.). In all transfections, a construct with the thymidine kinase promoter and the Renilla luciferase reporter gene (pRL-TK, Promega, Madison Wis.) is included as an internal control. Typically, cells grown in 48-well plates are transfected with 0.45 ug total DNA per well using Lipofectamine 2000 (Invitrogen Life Technologies, Carlsbad, Calif.). One day after transfection, cells are treated with agents at indicated concentrations for approximately 24 hours before they are lysed for luciferase assays, using Dual-Luciferase Reporter System from Promega (Madison, Wis.), following manufacturer's protocol. The firefly luciferase activity is measured first (representing elastin promoter activity), followed by the renilla luciferase (internal control), using luminometer LMAX, from Molecular Devices (Sunnyvale, Calif.). The ratio of these two luciferase activities (RLU) is used to evaluate the Tropoelastin Promoter Activity. […]

[3] = 10 ug/ml, series of substituted resorcinols (Table 2)

With `CCCCCCc1ccc(O)cc1O` [4-Hexylresorcinol] the “Percent NF-kB Inhibition” value ([1]; 1 ug/ml, TNFα 100 ng/ml stimulated FB293 cells, 24 h) was 1.9%, the “Percent NF-kB Inhibition” value ([1]; 5 ug/ml, TNFα 100 ng/ml stimulated FB293 cells, 24 h) was 50.9% and the “Percent NF-kB Inhibition” value ([1]; 10 ug/ml, TNFα 100 ng/ml stimulated FB293 cells, 24 h (Table 1)) was 72.9%. The “Percent NF-kB Inhibition” value [1, 3] was 92.4%, the “Percent NF-kB Inhibition” value ([1]; 50 ug/ml, TNFα 100 ng/ml stimulated FB293 cells, 24 h) was 91.4% and the “Percent Change Over Vehicle” value [2] was −12%. For the same molecule, the “Percent Change Over Vehicle” value ([2]; listed as 4-hexylresorcinol) was −12% and the “Tropoelastin Promoter Activity” value ([2]; 24 h, vehicle 1.36 ± 0.33 (Table 3)) was 1.2 ± 0.12.

In the case of `CCCCCCCCCCCC1c2cc(c(O)cc2O)C(CCCCCCCCCCC)c2cc(c(O)cc2O)C(CCCCCCCCCCC)c2cc(c(O)cc2O)C(CCCCCCCCCCC)c2cc1c(O)cc2O` (stereo not drawn) [C-Undecylcalix[4]-resorcinarene, C-Undecylcalix[4]-resorcinarene], the “Percent NF-kB Inhibition” value [1, 3] is reported as 4.87%.

For `CC1CCCC(=O)CCCCCc2cc(O)cc(O)c2C(=O)O1` (stereo not drawn) [Zearalanone], the “Percent NF-kB Inhibition” value [1, 3] was 50.95%.

With `CC1CCCC(O)CCCCCc2cc(O)cc(O)c2C(=O)O1` (stereo not drawn) [β-Zearalanol] the “Percent NF-kB Inhibition” value [1, 3] was 76.56%.

For `C[C@H]1CCC[C@@H](O)CCC/C=C/c2cc(O)cc(O)c2C(=O)O1` [β-Zearalenol], the “Percent NF-kB Inhibition” value [1, 3] was 87.1%.
